Some results are limits rather than exact numbers.

ROCK2 (human), sequence (O75116 whole entry, looked up): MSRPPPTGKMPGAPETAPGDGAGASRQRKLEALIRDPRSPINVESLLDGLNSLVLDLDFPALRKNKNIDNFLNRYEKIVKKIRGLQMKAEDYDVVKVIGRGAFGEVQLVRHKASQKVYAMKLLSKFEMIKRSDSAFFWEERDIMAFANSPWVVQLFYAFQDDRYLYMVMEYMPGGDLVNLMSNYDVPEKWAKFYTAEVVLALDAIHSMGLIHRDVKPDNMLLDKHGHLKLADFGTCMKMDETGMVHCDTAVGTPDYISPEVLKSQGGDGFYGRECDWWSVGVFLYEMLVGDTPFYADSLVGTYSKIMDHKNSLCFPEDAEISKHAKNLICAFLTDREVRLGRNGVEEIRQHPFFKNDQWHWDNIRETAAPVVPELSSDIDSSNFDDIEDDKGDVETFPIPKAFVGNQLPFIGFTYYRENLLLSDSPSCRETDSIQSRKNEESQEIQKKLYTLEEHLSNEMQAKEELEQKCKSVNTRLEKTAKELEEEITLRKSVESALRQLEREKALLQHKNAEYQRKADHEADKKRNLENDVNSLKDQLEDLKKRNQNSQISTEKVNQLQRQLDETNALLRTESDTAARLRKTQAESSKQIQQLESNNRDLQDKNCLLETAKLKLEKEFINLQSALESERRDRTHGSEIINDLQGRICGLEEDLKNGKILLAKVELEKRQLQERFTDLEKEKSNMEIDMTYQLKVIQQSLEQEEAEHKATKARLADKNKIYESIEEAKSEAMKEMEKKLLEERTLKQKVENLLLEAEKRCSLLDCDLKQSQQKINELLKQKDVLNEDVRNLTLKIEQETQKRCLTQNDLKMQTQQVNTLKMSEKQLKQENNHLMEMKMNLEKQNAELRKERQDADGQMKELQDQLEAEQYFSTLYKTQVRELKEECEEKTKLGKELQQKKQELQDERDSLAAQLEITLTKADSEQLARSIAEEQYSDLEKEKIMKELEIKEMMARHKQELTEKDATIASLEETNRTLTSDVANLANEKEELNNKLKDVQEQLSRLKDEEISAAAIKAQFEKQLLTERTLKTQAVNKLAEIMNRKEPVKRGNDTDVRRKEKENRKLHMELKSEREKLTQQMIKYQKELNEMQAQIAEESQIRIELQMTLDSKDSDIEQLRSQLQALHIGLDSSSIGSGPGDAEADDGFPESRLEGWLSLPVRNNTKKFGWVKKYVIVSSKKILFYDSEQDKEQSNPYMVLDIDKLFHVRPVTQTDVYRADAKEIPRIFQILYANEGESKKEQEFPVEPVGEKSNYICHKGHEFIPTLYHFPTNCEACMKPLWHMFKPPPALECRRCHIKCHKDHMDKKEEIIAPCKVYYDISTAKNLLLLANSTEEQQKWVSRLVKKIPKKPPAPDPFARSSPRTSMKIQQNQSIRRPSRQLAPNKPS

The assay concerns the target ROCK2 (human) (UniProt O75116). In words: Inhibition of ROCK2 Kinase Activity.
In the case of `COc1cccc(NC(=O)NCC(N)c2ccc(C(=O)Nc3ccncc3)cc2)c1` (stereo not given), the IC50 fell in the range of 50 to 500 nM.
Under `COc1ccc(CNC(=O)CC(N)c2ccc(C(=O)Nc3ccncc3)cc2)c(OC)c1` (stereo not given) stands 50 to 500 nM.
Under `COc1ccc(CC(=O)NCC(N)c2ccc(C(=O)Nc3ccncc3)cc2)cc1` (stereo not given) stands 50 to 500 nM.
Under `CC(C)C(C)NC(=O)CC(N)c1ccc(C(=O)Nc2ccncc2)cc1` (stereo not given) stands 50 to 500 nM; under `CCNC(=O)CC(N)c1ccc(C(=O)Nc2ccncc2)cc1` (stereo not given), 50 to 500 nM; under `CN(CC(N)c1ccc(C(=O)Nc2ccncc2)cc1)C(=O)Cc1cccc(Cl)c1F` (stereo not given), 500 to 5000 nM.
In turn, `NC(CNC(=O)CC1CC1)c1ccc(C(=O)Nc2ccncc2)cc1` (stereo not given) gave an IC50 of 500 to 5000 nM.
Under `NC(CNC(=O)Cc1ccc2ccccc2c1)c1ccc(C(=O)Nc2ccncc2)cc1` (stereo not given) stands 500 to 5000 nM; under `COCCNC(=O)CC(N)c1ccc(C(=O)Nc2ccncc2)cc1` (stereo not given), 50 to 500 nM.
Under `NC(c1ccc(C(=O)Nc2ccncc2)cc1)C1CCCN1C(=O)Cc1cccc(F)c1` (stereo not given) stands 500 to 5000 nM; under `NC(CNC(=O)COc1ccc(F)cc1)c1ccc(C(=O)Nc2ccncc2)cc1` (stereo not given), 50 to 500 nM; under `NC(CNC(=O)c1c[nH]cn1)c1ccc(C(=O)Nc2ccncc2)cc1` (stereo not given), 500 to 5000 nM.
Under `NC(CC(=O)NC1CCc2ccccc21)c1ccc(C(=O)Nc2ccncc2)cc1` (stereo not given) stands 50 to 500 nM.
`CN(CC(N)c1ccc(C(=O)Nc2ccncc2)cc1)C(=O)Cc1ccc(C(F)(F)F)cc1` (stereo not given) returned a concentration for half-maximal inhibition (IC50) of 500 to 5000 nM.
Under `N[C@H](CC(=O)NC1COc2ccccc21)c1ccc(C(=O)Nc2ccncc2)cc1` (stereo not given in full) stands less than 50 nM; under `CN(CC(N)c1ccc(C(=O)Nc2ccncc2)cc1)C(=O)Cc1ccc(F)cc1` (stereo not given), 500 to 5000 nM; under `NC(CC(=O)NCCn1cccn1)c1ccc(C(=O)Nc2ccncc2)cc1` (stereo not given), 50 to 500 nM.
For the compound `CN(CC(N)c1ccc(C(=O)Nc2ccncc2)cc1)C(=O)Cc1csc2ccccc12` (stereo not given), the IC50 fell in the range of 500 to 5000 nM.
Under `NC(CNC(=O)C1CCCC1)c1ccc(C(=O)Nc2ccncc2)cc1` (stereo not given) stands 500 to 5000 nM; under `NC(CC(=O)NCc1ccc(C(F)(F)F)cc1)c1ccc(C(=O)Nc2ccncc2)cc1` (stereo not given), 50 to 500 nM.
Under `NC(CNC(=O)c1ccc(F)cc1)c1ccc(C(=O)Nc2ccncc2)cc1` (stereo not given) stands 500 to 5000 nM; under `NC(CNC(=O)[C@H]1CCC(=O)N1)c1ccc(C(=O)Nc2ccncc2)cc1` (stereo not given in full), 50 to 500 nM.
`CN(CC(N)c1ccc(C(=O)Nc2ccncc2)cc1)C(=O)C1(c2ccc(Cl)cc2F)CC1` (stereo not given) returned an IC50 of 500 to 5000 nM.
Under `CCCCNC(=O)NCC(N)c1ccc(C(=O)Nc2ccncc2)cc1` (stereo not given) stands 500 to 5000 nM.
`CCOC(=O)CCNC(=O)NCC(N)c1ccc(C(=O)Nc2ccncc2)cc1` (stereo not given) yielded an IC50 of 500 to 5000 nM.
Under `CCCCC(C)CCC(=O)NCC(N)c1ccc(C(=O)Nc2ccncc2)cc1` (stereo not given) stands 50 to 500 nM; under `NC(CNC(=O)CCC1CCCC1)c1ccc(C(=O)Nc2ccncc2)cc1` (stereo not given), 50 to 500 nM.
Under `NC(CC(=O)N[C@@H]1CCCc2ccccc21)c1ccc(C(=O)Nc2ccncc2)cc1` (stereo not given in full) stands 50 to 500 nM; under `NC(CNC(=O)C1CCSc2ccccc21)c1ccc(C(=O)Nc2ccncc2)cc1` (stereo not given), 50 to 500 nM.
Under `N[C@@H](CC(=O)NC1COc2ccccc21)c1ccc(C(=O)Nc2ccncc2)cc1` (stereo not given in full) stands 50 to 500 nM; under `CC[C@H](NC(=O)CC(N)c1ccc(C(=O)Nc2ccncc2)cc1)c1ccccc1` (stereo not given in full), 50 to 500 nM.
As for `CN(CC(N)c1ccc(C(=O)Nc2ccncc2)cc1)C(=O)Cc1ccc(-c2ccccc2)cc1` (stereo not given), the half-inhibitory concentration (IC50) fell in the range of 500 to 5000 nM.
As to `CCOc1ccccc1CCNC(=O)CC(N)c1ccc(C(=O)Nc2ccncc2)cc1` (stereo not given), the IC50 was 50 to 500 nM.
Under `CN(CC(N)c1ccc(C(=O)Nc2ccncc2)cc1)C(=O)C1(c2ccsc2)CC1` (stereo not given) stands 500 to 5000 nM; under `NC(CNC(=O)C(c1ccccc1)C1CCCC1)c1ccc(C(=O)Nc2ccncc2)cc1` (stereo not given), 500 to 5000 nM.
Under `CN(C)CCNC(=O)CC(N)c1ccc(C(=O)Nc2ccncc2)cc1` (stereo not given) stands 50 to 500 nM; under `NC(CNC(=O)c1cc2ccccc2[nH]1)c1ccc(C(=O)Nc2ccncc2)cc1` (stereo not given), 500 to 5000 nM.
With `NC(c1ccc(C(=O)Nc2ccncc2)cc1)C1CCCN1C(=O)Cc1ccccc1` (stereo not given), the IC50 lay in the range of 50 to 500 nM.
Under `NC(c1ccc(C(=O)Nc2ccncc2)cc1)C1CCCN1C(=O)C1Cc2ccccc21` (stereo not given) stands 50 to 500 nM.
Under `CN(CC(N)c1ccc(C(=O)Nc2ccncc2)cc1)C(=O)Cc1ccc2c(c1)OCO2` (stereo not given) stands 500 to 5000 nM.
Under `NC(CNC(=O)Nc1ccc2ccccc2c1)c1ccc(C(=O)Nc2ccncc2)cc1` (stereo not given) stands 50 to 500 nM.
As for `NC(c1ccc(C(=O)Nc2ccncc2)cc1)C1CCCN1C(=O)C1(c2ccsc2)CC1` (stereo not given), the IC50 fell in the range of 500 to 5000 nM.
Under `NC(c1ccc(C(=O)Nc2ccncc2)cc1)C1CCCN1C(=O)Cc1ccc(F)cc1F` (stereo not given) stands 50 to 500 nM.
`Cc1ncccc1C(=O)NCC(N)c1ccc(C(=O)Nc2ccncc2)cc1` (stereo not given): the concentration for half-maximal inhibition (IC50) fell in the range of 500 to 5000 nM.
Under `CCOc1ccc(CCNC(=O)CC(N)c2ccc(C(=O)Nc3ccncc3)cc2)cc1` (stereo not given) stands 50 to 500 nM.
Under `NC(c1ccc(C(=O)Nc2ccncc2)cc1)C1CCCN1C(=O)C1CCOc2ccccc21` (stereo not given) stands 500 to 5000 nM; under `NC(CNC(=O)c1cccc2ccccc12)c1ccc(C(=O)Nc2ccncc2)cc1` (stereo not given), 500 to 5000 nM.
Under `COCCC(=O)NCC(N)c1ccc(C(=O)Nc2ccncc2)cc1` (stereo not given) stands 500 to 5000 nM; under `NC(c1ccc(C(=O)Nc2ccncc2)cc1)C1CCCN1C(=O)C1(c2ccc(Cl)c(Cl)c2)CC1` (stereo not given), 500 to 5000 nM; under `NC(CNC(=O)Cc1ccc2c(c1)OCO2)c1ccc(C(=O)Nc2ccncc2)cc1` (stereo not given), 50 to 500 nM.
In turn, `COc1cc(Br)ccc1CCNC(=O)CC(N)c1ccc(C(=O)Nc2ccncc2)cc1` (stereo not given) came in with an IC50 of 50 to 500 nM.
On to `CN(CC(N)c1ccc(C(=O)Nc2ccncc2)cc1)C(=O)C1(c2ccc(F)c(F)c2)CCCC1` (stereo not given), for which the IC50 is 500 to 5000 nM.
Under `N[C@@H](CC(=O)NCc1ccc(F)cc1)c1ccc(C(=O)Nc2ccncc2)cc1` stands 50 to 500 nM.
As for `CN(CC(N)c1ccc(C(=O)Nc2ccncc2)cc1)C(=O)C1(c2ccccc2)CC1` (stereo not given), the concentration for half-maximal inhibition (IC50) lay in the range of 500 to 5000 nM.
Under `COc1ccc(C(=O)NCC(N)c2ccc(C(=O)Nc3ccncc3)cc2)cc1` (stereo not given) stands 500 to 5000 nM; under `CCN(Cc1ccc([N+](=O)[O-])cc1)C(=O)CC(N)c1ccc(C(=O)Nc2ccncc2)cc1` (stereo not given), 50 to 500 nM; under `COc1ccc2[nH]c(C(=O)NCC(N)c3ccc(C(=O)Nc4ccncc4)cc3)cc2c1` (stereo not given), 500 to 5000 nM.
Under `NC(CC(=O)N[C@H]1CCCc2ccccc21)c1ccc(C(=O)Nc2ccncc2)cc1` (stereo not given in full) stands 50 to 500 nM; under `Cc1cccc(Cl)c1CNC(=O)CC(N)c1ccc(C(=O)Nc2ccncc2)cc1` (stereo not given), 50 to 500 nM; under `NC(CNC(=O)Nc1ccc(-c2ccccc2)cc1)c1ccc(C(=O)Nc2ccncc2)cc1` (stereo not given), 500 to 5000 nM.
Under `COc1cccc(CC(=O)N2CCCC2C(N)c2ccc(C(=O)Nc3ccncc3)cc2)c1` (stereo not given) stands 500 to 5000 nM; under `NC(CNC(=O)c1cccs1)c1ccc(C(=O)Nc2ccncc2)cc1` (stereo not given), 50 to 500 nM; under `CC(C)(C(=O)NC[C@@H](N)c1ccc(C(=O)Nc2ccncc2)cc1)c1ccc(Cl)cc1`, 50 to 500 nM.
Compound `CC(NC(=O)CC(N)c1ccc(C(=O)Nc2ccncc2)cc1)c1cccc2ccccc12` (stereo not given) gave an IC50 of 50 to 500 nM.
Under `CCOCC(=O)NCC(N)c1ccc(C(=O)Nc2ccncc2)cc1` (stereo not given) stands 500 to 5000 nM; under `COc1ccc(C2(C(=O)N(C)CC(N)c3ccc(C(=O)Nc4ccncc4)cc3)CC2)cc1` (stereo not given), 500 to 5000 nM; under `COc1ccccc1CC(=O)N1CCCC1C(N)c1ccc(C(=O)Nc2ccncc2)cc1` (stereo not given), 500 to 5000 nM.
As for `NC(CNC(=O)c1ccc2ccccc2c1)c1ccc(C(=O)Nc2ccncc2)cc1` (stereo not given), the IC50 was in the range of 50 to 500 nM.
Under `CC(C)C(C(=O)N(C)CC(N)c1ccc(C(=O)Nc2ccncc2)cc1)c1ccc(Cl)cc1` (stereo not given) stands 500 to 5000 nM; under `NC(CNC(=O)C1CCCCC1)c1ccc(C(=O)Nc2ccncc2)cc1` (stereo not given), 500 to 5000 nM; under `NC(c1ccc(C(=O)Nc2ccncc2)cc1)C1CCCN1C(=O)Cc1c[nH]c2ccccc12` (stereo not given), 500 to 5000 nM.
In turn, `N[C@H](CNC(=O)C1(c2ccc(F)cc2)CCCC1)c1ccc(C(=O)Nc2ccncc2)cc1` showed an IC50 of 50 to 500 nM.
Under `NC(c1ccc(C(=O)Nc2ccncc2)cc1)C1CCCN1C(=O)Cc1csc(-c2ccccc2)n1` (stereo not given) stands 500 to 5000 nM; under `NC(c1ccc(C(=O)Nc2ccncc2)cc1)C1CCCN1C(=O)Cc1ccc(Cl)cc1F` (stereo not given), 500 to 5000 nM.
Under `NC(CNC(=O)Cc1ccc(-c2ccccc2)cc1)c1ccc(C(=O)Nc2ccncc2)cc1` (stereo not given) stands 500 to 5000 nM; under `CN(CC(N)c1ccc(C(=O)Nc2ccncc2)cc1)C(=O)C1(c2ccc(Cl)cc2Cl)CC1` (stereo not given), 500 to 5000 nM.
Under `NC(CNC(=O)C1(c2cccs2)CC1)c1ccc(C(=O)Nc2ccncc2)cc1` (stereo not given) stands 50 to 500 nM; under `NC(c1ccc(C(=O)Nc2ccncc2)cc1)C1CCCN1C(=O)C1CCc2ccccc21` (stereo not given), 500 to 5000 nM.
`NC(CNC(=O)Nc1cccc2ccccc12)c1ccc(C(=O)Nc2ccncc2)cc1` (stereo not given) yielded an IC50 of 50 to 500 nM.
The compound `CN(CCO)C(=O)CC(N)c1ccc(C(=O)Nc2ccncc2)cc1` (stereo not given) registered a 50% inhibitory concentration (IC50) of 50 to 500 nM.
Under `COc1cccc(OC)c1CNC(=O)CC(N)c1ccc(C(=O)Nc2ccncc2)cc1` (stereo not given) stands 50 to 500 nM.
Under `Cc1ccccc1NC(=O)NCC(N)c1ccc(C(=O)Nc2ccncc2)cc1` (stereo not given) stands 50 to 500 nM; under `NC(CNC(=O)c1ccnc2ccccc12)c1ccc(C(=O)Nc2ccncc2)cc1` (stereo not given), 500 to 5000 nM.
For `CC(C)(C(=O)NCC(N)c1ccc(C(=O)Nc2ccncc2)cc1)c1ccsc1` (stereo not given), the IC50 was in the range of 50 to 500 nM.
Turning to `NC(c1ccc(C(=O)Nc2ccncc2)cc1)C1CCCN1C(=O)Cc1ccc(Cl)cc1Cl` (stereo not given), the half-inhibitory concentration (IC50) lay in the range of 500 to 5000 nM.
Under `CC1CCCC(C(=O)NCC(N)c2ccc(C(=O)Nc3ccncc3)cc2)C1` (stereo not given) stands 500 to 5000 nM; under `Cc1ccc(C(=O)NCC(N)c2ccc(C(=O)Nc3ccncc3)cc2)cc1` (stereo not given), 500 to 5000 nM.
With `NC(CNC(=O)C1CCCCc2ccc(F)cc21)c1ccc(C(=O)Nc2ccncc2)cc1` (stereo not given), the 50% inhibitory concentration (IC50) lay in the range of 50 to 500 nM.
Under `NC(CC(=O)NCc1ccccc1)c1ccc(C(=O)Nc2ccncc2)cc1` (stereo not given) stands 50 to 500 nM; under `CN(CC(N)c1ccc(C(=O)Nc2ccncc2)cc1)C(=O)C1(c2ccc(F)cc2)CC1` (stereo not given), 500 to 5000 nM.

In general, IC50 refers to the concentration needed to halve the response being measured. Higher therefore signals lower potency.

The values above are taken from the Kinase Knowledgebase extract (Sharma et al. 2016).
